The supplement of paper PMC10733146

What was measured:
Experiment in all cases: viability relative to DMSO control (fraction); higher = less drug effect (more viable cells)
Settings in all cases: 48 h
[1] = test system: primary AML patient cells (S055)
Outline: (§1)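 Viability was measured as CellTiter-Glo luminescence relative to the median of 16 inner DMSO wells. Primary mononuclear tumour cells, fresh or cryopreserved, were Ficoll-isolated from blood or bone marrow or taken from processed lymph node. They were seeded at 4 × 10^4 cells per well into 384-well plates holding pre-plated compounds at five concentrations, one well each, and kept in RPMI-1640 with penicillin/streptomycin, L-glutamine and human serum at 37 °C and 5% CO2 for 48 h.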

[2] = test system: primary AML patient cells (S006)
Outline: as §1

[3] = test system: primary MCL patient cells (S041)
Outline: as §1

[4] = test system: primary DLBCL patient cells (S082)
Outline: as §1

[5] = test system: primary AML patient cells (S009)
Outline: as §1

[6] = test system: primary ALL patient cells (S088)
Outline: as §1

[7] = test system: primary AML patient cells (S021)
Outline: as §1

[8] = test system: primary AML patient cells (S081)
Outline: as §1

[9] = test system: primary AML patient cells (S011)
Outline: as §1

[10] = test system: primary B-PLL patient cells (S016)
Outline: as §1

[11] = test system: primary T-PLL patient cells (S008)
Outline: as §1

[12] = test system: primary AML patient cells (S060)
Outline: as §1

[13] = test system: primary MCL patient cells (S063)
Outline: as §1

[14] = test system: primary FL patient cells (S087)
Outline: as §1

CC(C)C[C@H](NC(=O)CNC(=O)c1cc(Cl)ccc1Cl)B(O)O [Ixazomib]
viability ([1]; 0.008 µM): 0.936
viability ([1]; 0.04 µM): 0.984
viability ([1]; 0.2 µM): 0.953
viability ([1]; 1 µM): 0.992
viability ([1]; 5 µM): 0.941
viability ([2]; 0.008 µM): 0.929
viability ([2]; 0.04 µM): 1
viability ([2]; 0.2 µM): 0.924
viability ([2]; 1 µM): 1.04
viability ([2]; 5 µM): 1.01
viability ([3]; 0.008 µM): 0.87
viability ([3]; 0.04 µM): 0.97
viability ([3]; 0.2 µM): 0.934
viability ([3]; 1 µM): 1.04
viability ([3]; 5 µM): 1.05
viability ([4]; 0.008 µM): 0.858
viability ([4]; 0.04 µM): 0.964
viability ([4]; 0.2 µM): 0.815
viability ([4]; 1 µM): 1.06
viability ([4]; 5 µM): 1.01
viability ([5]; 0.008 µM): 1.09
viability ([5]; 0.04 µM): 0.981
viability ([5]; 0.2 µM): 1.08
viability ([5]; 1 µM): 1.03
viability ([5]; 5 µM): 1.09
viability ([6]; 0.008 µM): 0.741
viability ([6]; 0.04 µM): 0.839
viability ([6]; 0.2 µM): 0.793
viability ([6]; 1 µM): 0.851
viability ([6]; 5 µM): 0.996
viability ([7]; 0.008 µM): 0.927
viability ([7]; 0.04 µM): 1
viability ([7]; 0.2 µM): 0.983
viability ([7]; 1 µM): 1.14
viability ([7]; 5 µM): 1.09
viability ([8]; 0.008 µM): 0.987
viability ([8]; 0.04 µM): 0.96
viability ([8]; 0.2 µM): 0.901
viability ([8]; 1 µM): 0.95
viability ([8]; 5 µM): 0.981
viability ([9]; 0.008 µM): 0.957
viability ([9]; 0.04 µM): 1.15
viability ([9]; 0.2 µM): 0.891
viability ([9]; 1 µM): 1.06
viability ([9]; 5 µM): 1.03
viability ([10]; 0.008 µM): 0.929
viability ([10]; 0.04 µM): 0.946
viability ([10]; 0.2 µM): 0.987
viability ([10]; 1 µM): 1
viability ([10]; 5 µM): 0.913
viability ([11]; 0.008 µM): 0.924
viability ([11]; 0.04 µM): 1.01
viability ([11]; 0.2 µM): 1.09
viability ([11]; 1 µM): 1.01
viability ([11]; 5 µM): 0.961
viability ([12]; 0.008 µM): 1.03
viability ([12]; 0.04 µM): 0.988
viability ([12]; 0.2 µM): 1.03
viability ([12]; 1 µM): 1.02
viability ([12]; 5 µM): 1.01
viability ([13]; 0.008 µM): 0.919
viability ([13]; 0.04 µM): 1.02
viability ([13]; 0.2 µM): 0.921
viability ([13]; 1 µM): 0.993
viability ([13]; 5 µM): 0.953
viability ([14]; 0.008 µM): 0.91
viability ([14]; 0.04 µM): 0.975
viability ([14]; 0.2 µM): 0.978
viability ([14]; 1 µM): 0.96
viability ([14]; 5 µM): 0.982

O=C1c2c(O)ccc(O)c2C(=O)c2c(NCCNCCO)ccc(NCCNCCO)c21 [Mitoxantrone]
viability ([1]; 0.008 µM): 0.978
viability ([1]; 0.04 µM): 0.869
viability ([1]; 0.2 µM): 0.821
viability ([1]; 1 µM): 0.729
viability ([1]; 5 µM): 0.234
viability ([2]; 0.008 µM): 0.426
viability ([2]; 0.04 µM): 0.155
viability ([2]; 0.2 µM): 0.0754
viability ([2]; 1 µM): 0.0534
viability ([2]; 5 µM): 0.0375
viability ([3]; 0.008 µM): 0.985
viability ([3]; 0.04 µM): 0.862
viability ([3]; 0.2 µM): 0.569
viability ([3]; 1 µM): 0.0728
viability ([3]; 5 µM): 0.015
viability ([4]; 0.008 µM): 0.886
viability ([4]; 0.04 µM): 0.691
viability ([4]; 0.2 µM): 0.541
viability ([4]; 1 µM): 0.538
viability ([4]; 5 µM): 0.0152
viability ([5]; 0.008 µM): 0.788
viability ([5]; 0.04 µM): 0.651
viability ([5]; 0.2 µM): 0.517
viability ([5]; 1 µM): 0.156
viability ([5]; 5 µM): 0.0504
viability ([6]; 0.008 µM): 0.535
viability ([6]; 0.04 µM): 0.271
viability ([6]; 0.2 µM): 0.216
viability ([6]; 1 µM): 0.0605
viability ([6]; 5 µM): 0.0218
viability ([7]; 0.008 µM): 0.66
viability ([7]; 0.04 µM): 0.327
viability ([7]; 0.2 µM): 0.265
viability ([7]; 1 µM): 0.212
viability ([7]; 5 µM): 0.106
viability ([8]; 0.008 µM): 0.995
viability ([8]; 0.04 µM): 1.01
viability ([8]; 0.2 µM): 1.09
viability ([8]; 1 µM): 0.167
viability ([8]; 5 µM): 0.0158
viability ([9]; 0.008 µM): 0.818
viability ([9]; 0.04 µM): 0.384
viability ([9]; 0.2 µM): 0.203
viability ([9]; 1 µM): 0.041
viability ([9]; 5 µM): 0.0174
viability ([10]; 0.008 µM): 0.278
viability ([10]; 0.04 µM): 0.0753
viability ([10]; 0.2 µM): 0.0754
viability ([10]; 1 µM): 0.0236
viability ([10]; 5 µM): 0.014
viability ([11]; 0.008 µM): 1.02
viability ([11]; 0.04 µM): 0.961
viability ([11]; 0.2 µM): 0.502
viability ([11]; 1 µM): 0.0553
viability ([11]; 5 µM): 0.0424
viability ([12]; 0.008 µM): 0.974
viability ([12]; 0.04 µM): 0.963
viability ([12]; 0.2 µM): 1.07
viability ([12]; 1 µM): 0.332
viability ([12]; 5 µM): 0.016
viability ([13]; 0.008 µM): 1.02
viability ([13]; 0.04 µM): 0.812
viability ([13]; 0.2 µM): 0.598
viability ([13]; 1 µM): 0.246
viability ([13]; 5 µM): 0.0145
viability ([14]; 0.008 µM): 0.868
viability ([14]; 0.04 µM): 0.763
viability ([14]; 0.2 µM): 0.717
viability ([14]; 1 µM): 0.548
viability ([14]; 5 µM): 0.177
